Read-outs that look alike come from different tables or passages of the source.
Target: HIV-1 protease (Human immunodeficiency virus type 1 group M subtype B, UniProt P03369)
Experiment: biochemical
Experimental: HIV-1 protease activity was measured at 37° C. using a continuous fluorimetric assay based on the method of Toth et al., (Toth et al., 1990, Int. J. Pept. Res. 36 544-550). The substrate, 2-aminobenzoyl-threonine-isoleucine-norleucine-(p-nitro)-phenylalanine-glutamine-arginine-NH2 (Abz-NF^* -6), was synthesised by solid phase peptide synthesis (Kent et al., 1991, In: Peptides 1990: Proceedings of the Twenty-First European Peptide Symposium (Girault, E. and Andrew, D. eds.) pp 172-173, ESCOM, Leiden). Enzyme activity was measured as the increase in fluorescence intensity upon substrate hydrolysis. The change in fluorescence intensity was monitored with a Perkin Elmer LS50B luminescence spectrometer fitted with a thermostatted micro cuvette holder. Measurements were carried out using an excitation wavelength of 320 nm (bandwith 5 nm) and an emission wavelength of […] (bandwith 5 nm).
Inhibition assays were routinely carried out at pH 6.5 and μ=0.1 M using a single substrate concentration. The assay mixtures contained 50 μM Abz-NF^* -6 in 100 mM 2-(N-morpholino)ethanesulphonate buffer, containing 10% (v/v) glycerol and 50 μg/ml bovine serum albumin, in a total final volume of 400 μl. Where inhibitors had to be dissolved in dimethyl sulphoxide or other organic solvents, the final concentration of solvent in the control and inhibition assays were kept absolutely constant because of the severe inhibitory effect of some solvents on the enzyme activity (Bergman et al., 1992, 17th Ann. Lorne Conf. on Protein Struct. and Funct. Abstr.). In all assays, the reaction was initiated by the addition of 10 μl of enzyme solution.

[1] = Table 1, pH 6.5, 37° C., read-out: IC50
[2] = Table 2, pH 6.5, 37° C., read-out: IC50
[3] = Table 4, rac (R and S isomer together), read-out: IC50
[4] = Table 5, pH 6.5, 37° C., read-out: IC50

CC[C@H](C)[C@H](NC(=O)[C@@H]1CCCN1C[C@@H](O)[C@@H]1Cc2ccc(cc2)OCCCC(=O)N[C@@H](CC(N)=O)C(=O)N1)C(=O)N[C@H](C(N)=O)C(C)C [Compound 2]
IC50: 1580 nM

CC[C@H](C)[C@H](NC(=O)[C@@H]1CCCN1C[C@H](O)[C@@H]1Cc2ccc(cc2)OCCCC(=O)N[C@@H](CC(N)=O)C(=O)N1)C(=O)N[C@H](C(N)=O)C(C)C [Compound 3, [2(S),11'(S),8'(S)]-2-[11'-[6',9'-dioxo-8'-(ethanamide)-2'-oxa-7',10'-diazabicyclo[11.2.2]heptadeca-13',15',16'-triene]]-1-(N-(S)-prolyl-(S)-isoleucyl-(S)-valine amide)ethan-2-ol]
IC50: 39 nM
protease inhibition, stated in words: successfully functionally mimicked compound 1

CC[C@H](C)[C@H](NC(=O)[C@@H]1CCCN1C[C@@H](O)[C@@H]1Cc2ccc(cc2)OCCCC(=O)N[C@@H](CC(N)=O)C(=O)N1)C(N)=O [Compound 4]
IC50 (read-out: IC50): 9500 nM

CC[C@H](C)[C@H](NC(=O)[C@@H]1CCCN1C[C@H](O)[C@@H]1Cc2ccc(cc2)OCCCC(=O)N[C@@H](CC(N)=O)C(=O)N1)C(N)=O [Compound 5]
protease inhibition, stated in words: reduced potency
IC50 (read-out: IC50): 850 nM

NC(=O)C[C@@H]1NC(=O)CCCOc2ccc(cc2)C[C@@H]([C@H](O)CN2CCC[C@H]2C(N)=O)NC1=O [Compound 6]
IC50 [1]: 55000 nM

NC(=O)C[C@@H]1NC(=O)CCCOc2ccc(cc2)C[C@@H]([C@@H](O)CN2CCC[C@H]2C(N)=O)NC1=O [Compound 7]
protease inhibition, stated in words: reduced potency
IC50 [1]: 120000 nM

CC[C@H](C)[C@H](NC(=O)[C@@H]1CCCN1C[C@@H](O)[C@@H]1Cc2ccc(cc2)OCCNCC(=O)N[C@@H](CC(N)=O)C(=O)N1)C(=O)N[C@H](C(N)=O)C(C)C [Compound 8]
IC50 [1]: 700 nM

CC[C@H](C)[C@H](NC(=O)[C@@H]1CCCN1C[C@H](O)[C@@H]1Cc2ccc(cc2)OCCNCC(=O)N[C@@H](CC(N)=O)C(=O)N1)C(=O)N[C@H](C(N)=O)C(C)C [Compound 9]
IC50 [1]: 37 nM

CC[C@H](C)[C@H](NC(=O)[C@@H]1CCCN1C[C@@H](O)[C@@H]1Cc2ccc(cc2)OCC(O)C(O)C(=O)N[C@@H](CC(N)=O)C(=O)N1)C(=O)N[C@H](C(N)=O)C(C)C (stereo partly drawn) [Compound 10]
protease inhibition, stated in words: no improvement was observed in potency compared to 3 or 9
IC50 [1]: 600 nM

CC[C@H](C)[C@H](NC(=O)[C@@H]1CCCN1C[C@H](O)[C@@H]1Cc2ccc(cc2)OCC(O)C(O)C(=O)N[C@@H](CC(N)=O)C(=O)N1)C(=O)N[C@H](C(N)=O)C(C)C (stereo partly drawn) [Compound 11]
protease inhibition, stated in words: no improvement was observed in potency compared to 3 or 9
IC50 [1]: 49 nM

CC[C@H](C)[C@H](NC(=O)[C@@H]1CCCN1C[C@@H](O)[C@@H]1Cc2ccc(cc2)OCCCCC(=O)N[C@@H](CC(N)=O)C(=O)N1)C(=O)N[C@H](C(N)=O)C(C)C [Compound 12]
IC50 [2]: 165 nM

CC[C@H](C)[C@H](NC(=O)[C@@H]1CCCN1C[C@H](O)[C@@H]1Cc2ccc(cc2)OCCCCC(=O)N[C@@H](CC(N)=O)C(=O)N1)C(=O)N[C@H](C(N)=O)C(C)C [Compound 13]
protease inhibition, stated in words: no dramatic increase in potency
IC50 [2]: 26 nM

CCOC(=O)CCCOc1ccc(C[C@H](NC(=O)[C@H](CC(N)=O)NC(C)=O)[C@H](O)CN2CCC[C@H]2C(=O)N[C@H](C(=O)N[C@H](C(N)=O)C(C)C)[C@@H](C)CC)cc1 [Compound 14]
protease inhibition, stated in words: slightly reduced potency
IC50 [2]: 350 nM

CCOC(=O)CCCOc1ccc(C[C@H](NC(=O)[C@H](CC(N)=O)NC(C)=O)[C@@H](O)CN2CCC[C@H]2C(=O)N[C@H](C(=O)N[C@H](C(N)=O)C(C)C)[C@@H](C)CC)cc1 [Compound 15]
protease inhibition, stated in words: slightly reduced potency
IC50 [2]: 45 nM

CC[C@H](C)[C@H](NC(=O)[C@@H]1CCCN1C[C@@H](O)[C@@H]1CSSCC(NC(C)=O)C(=O)NCC(=O)N[C@@H](CC(N)=O)C(=O)N1)C(=O)N[C@H](C(N)=O)C(C)C (stereo partly drawn) [Compound 16]
protease inhibition, stated in words: activity was instead reduced
IC50 [2]: 122000 nM

CC[C@H](C)[C@H](NC(=O)[C@@H]1CCCN1C[C@H](O)[C@@H]1CSSCC(NC(C)=O)C(=O)NCC(=O)N[C@@H](CC(N)=O)C(=O)N1)C(=O)N[C@H](C(N)=O)C(C)C (stereo partly drawn) [Compound 17]
protease inhibition, stated in words: activity was instead reduced
IC50 [2]: 28000 nM

CC[C@H](C)[C@H](NC(=O)[C@@H]1CCCN1C[C@H](O)[C@@H]1Cc2ccc(cc2)OCC(=O)N[C@@H](Cc2ccc(O)cc2)C(=O)N[C@@H](CC(N)=O)C(=O)N1)C(=O)N[C@H](C(N)=O)C(C)C [Compound 18]
IC50: 38 nM

CC[C@H](C)[C@H](NC(=O)[C@@H]1CCCN1C[C@@H](O)[C@@H]1Cc2ccc(cc2)OCC(=O)N[C@@H](Cc2ccc(O)cc2)C(=O)N[C@@H](CC(N)=O)C(=O)N1)C(=O)N[C@H](C(N)=O)C(C)C [Compound 19]
IC50: 165 nM

CC[C@H](C)[C@H](NC(=O)[C@@H]1CCCN1C[C@H](O)[C@@H]1Cc2ccc(cc2)OCC(=O)N[C@@H](Cc2cnc[nH]2)C(=O)N[C@@H](CC(N)=O)C(=O)N1)C(=O)N[C@H](C(N)=O)C(C)C [Compound 20]
IC50 (pH 6.5): 26 nM

CC[C@H](C)[C@H](NC(=O)[C@@H]1CCCN1C[C@@H](O)[C@@H]1Cc2ccc(cc2)OCC(=O)N[C@@H](Cc2cnc[nH]2)C(=O)N[C@@H](CC(N)=O)C(=O)N1)C(=O)N[C@H](C(N)=O)C(C)C [Compound 21]
IC50 (pH 6.5): 339 nM

CC[C@H](C)[C@H](NC(=O)[C@@H]1CCCN1C[C@H](O)[C@@H]1Cc2ccc(cc2)OCC(=O)N[C@@H](CCCNC(=N)N)C(=O)N[C@@H](CC(N)=O)C(=O)N1)C(=O)N[C@H](C(N)=O)C(C)C [Compound 22]
IC50 (pH 6.5): 42 nM

CC[C@H](C)[C@H](NC(=O)[C@@H]1CCCN1C[C@@H](O)[C@@H]1Cc2ccc(cc2)OCC(=O)N[C@@H](CCCNC(=N)N)C(=O)N[C@@H](CC(N)=O)C(=O)N1)C(=O)N[C@H](C(N)=O)C(C)C [Compound 23]
IC50 (pH 6.5): 49 nM

CC[C@H](C)[C@H](NC(=O)[C@@H]1CCCN1C[C@@H](O)[C@@H]1Cc2ccc(cc2)OCC(=O)N[C@H](CCC(N)=O)C(=O)N[C@@H](CC(N)=O)C(=O)N1)C(=O)N[C@H](C(N)=O)C(C)C [Compound 24]
IC50: 40 nM

CC[C@H](C)[C@H](NC(=O)[C@@H]1CCCN1C[C@H](O)[C@@H]1Cc2ccc(cc2)OCC(=O)N[C@H](CCC(N)=O)C(=O)N[C@@H](CC(N)=O)C(=O)N1)C(=O)N[C@H](C(N)=O)C(C)C [Compound 25]
IC50: 40 nM

CC(C)CN(CC(=O)NC(C)(C)C)C[C@@H](O)[C@@H]1Cc2ccc(cc2)OCCCC(=O)N[C@@H](CC(N)=O)C(=O)N1 [Compound 26]
protease inhibition, stated in words: only μM instead of nM
IC50 (read-out: IC50): 1700 nM

CC(C)CN(CC(=O)NC(C)(C)C)C[C@H](O)[C@@H]1Cc2ccc(cc2)OCCCC(=O)N[C@@H](CC(N)=O)C(=O)N1 [Compound 27]
protease inhibition, stated in words: only μM instead of nM
IC50 (read-out: IC50): 1900 nM

CC(C)(C)NC(=O)CN(Cc1ccccc1)C[C@@H](O)[C@@H]1Cc2ccc(cc2)OCCCC(=O)N[C@@H](CC(N)=O)C(=O)N1 [Compound 28]
IC50: 1500 nM

CC(C)(C)NC(=O)CN(Cc1ccccc1)C[C@H](O)[C@@H]1Cc2ccc(cc2)OCCCC(=O)N[C@@H](CC(N)=O)C(=O)N1 [Compound 29]
IC50: 46000 nM

CC(C)(C)NC(=O)C(Cc1ccccc1)NC[C@@H](O)[C@@H]1Cc2ccc(cc2)OCCCC(=O)N[C@@H](CC(N)=O)C(=O)N1 (stereo partly drawn) [Compound 30]
IC50 [3]: 70000 nM

CC(C)(C)NC(=O)C(Cc1ccccc1)NC[C@H](O)[C@@H]1Cc2ccc(cc2)OCCCC(=O)N[C@@H](CC(N)=O)C(=O)N1 (stereo partly drawn) [Compound 31]
IC50 [3]: 70000 nM

CC(C)NC(=O)C(Cc1ccccc1)NC[C@@H](O)[C@@H]1Cc2ccc(cc2)OCCCC(=O)N[C@@H](CC(N)=O)C(=O)N1 (stereo partly drawn) [Compound 32]
IC50 [3]: 42000 nM

CC(C)NC(=O)C(Cc1ccccc1)NC[C@H](O)[C@@H]1Cc2ccc(cc2)OCCCC(=O)N[C@@H](CC(N)=O)C(=O)N1 (stereo partly drawn) [Compound 33]
IC50 [3]: 42000 nM

CC(C)CNC(=O)C(Cc1ccccc1)NC[C@@H](O)[C@@H]1Cc2ccc(cc2)OCCCC(=O)N[C@@H](CC(N)=O)C(=O)N1 (stereo partly drawn) [Compound 34]
IC50: 5200 nM

CC(C)CNC(=O)C(Cc1ccccc1)NC[C@H](O)[C@@H]1Cc2ccc(cc2)OCCCC(=O)N[C@@H](CC(N)=O)C(=O)N1 (stereo partly drawn) [Compound 35]
IC50: 5200 nM

CCOC(=O)CCCOc1ccc(C[C@H](NC(=O)[C@H](CC(N)=O)NC(=O)OC(C)(C)C)[C@H](O)CN2CCC[C@H]2C(=O)NC(C)(C)C)cc1 [Compound 36]
protease inhibition, stated in words: much less active than 38 & 39
IC50 [4]: 7050 nM

CCOC(=O)CCCOc1ccc(C[C@H](NC(=O)[C@H](CC(N)=O)NC(=O)OC(C)(C)C)[C@@H](O)CN2CCC[C@H]2C(=O)NC(C)(C)C)cc1 [Compound 37]
protease inhibition, stated in words: much less active than 38 & 39
IC50 [4]: 22000 nM

CC(C)(C)NC(=O)[C@@H]1CCCN1C[C@@H](O)[C@@H]1Cc2ccc(cc2)OCCCC(=O)N[C@@H](CC(N)=O)C(=O)N1 [Compound 38]
IC50 (read-out: IC50): 194 nM

Source: patent US6043357A, “HIV protease inhibitors” (The University of Queensland, priority 1994, dated 2000)
